# Results from the supplement of paper PMC10307832.
# Experiments:
# Test in all cases: relative viability (nuclei count vs DMSO), 5 days (fraction); higher = more cells survive
# Seliciclib + Pemetrexed = compound: CC[C@H](CO)Nc1nc(NCc2ccccc2)c2ncn(C(C)C)c2n1 [Seliciclib] + Nc1nc2[nH]cc(CCc3ccc(C(=O)N[C@@H](CCC(=O)O)C(=O)O)cc3)c2c(=O)[nH]1 [Pemetrexed] (partner 0.2 µM)
# Summary of the method: (§1)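 Dosing by pin tool came one day after lung cancer cell lines were seeded in 1536-well plates, using either one drug or a fixed anchor-drug dose plus five library-drug doses (not always all listed) in √10 steps. After 5 days, nuclei were counted on 4× images. Relative viability is treated-well nuclei count divided by vehicle-well nuclei count, and values are medians of duplicate plates.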
# Seliciclib + Vorinostat = compound: CC[C@H](CO)Nc1nc(NCc2ccccc2)c2ncn(C(C)C)c2n1 [Seliciclib] + O=C(CCCCCCC(=O)Nc1ccccc1)NO [Vorinostat] (partner 1 µM)
# Summary of the method: as §1
# Seliciclib + Olaparib = compound: CC[C@H](CO)Nc1nc(NCc2ccccc2)c2ncn(C(C)C)c2n1 [Seliciclib] + O=C(c1cc(Cc2n[nH]c(=O)c3ccccc23)ccc1F)N1CCN(C(=O)C2CC2)CC1 [Olaparib] (partner 8 µM)
# Summary of the method: as §1
# Seliciclib + Linsitinib = compound: CC[C@H](CO)Nc1nc(NCc2ccccc2)c2ncn(C(C)C)c2n1 [Seliciclib] + C[C@]1(O)C[C@@H](c2nc(-c3ccc4ccc(-c5ccccc5)nc4c3)c3c(N)nccn32)C1 [Linsitinib] (partner 1 µM)
# Summary of the method: as §1
Cell Line,relative viability (Seliciclib + Pemetrexed; first compound 0.08 µM),relative viability (Seliciclib + Pemetrexed; first compound 0.253 µM),relative viability (Seliciclib + Pemetrexed; first compound 0.8 µM),relative viability (Seliciclib + Pemetrexed; first compound 2.53 µM),relative viability (Seliciclib + Pemetrexed; first compound 8 µM),relative viability (Seliciclib + Vorinostat; first compound 0.08 µM),relative viability (Seliciclib + Vorinostat; first compound 0.253 µM),relative viability (Seliciclib + Vorinostat; first compound 0.8 µM),relative viability (Seliciclib + Vorinostat; first compound 2.53 µM),relative viability (Seliciclib + Vorinostat; first compound 8 µM),relative viability (Seliciclib + Olaparib; first compound 0.08 µM),relative viability (Seliciclib + Olaparib; first compound 0.253 µM),relative viability (Seliciclib + Olaparib; first compound 0.8 µM),relative viability (Seliciclib + Olaparib; first compound 2.53 µM),relative viability (Seliciclib + Olaparib; first compound 8 µM),relative viability (Seliciclib + Linsitinib; first compound 0.08 µM),relative viability (Seliciclib + Linsitinib; first compound 0.253 µM),relative viability (Seliciclib + Linsitinib; first compound 0.8 µM),relative viability (Seliciclib + Linsitinib; first compound 2.53 µM),relative viability (Seliciclib + Linsitinib; first compound 8 µM)
NCI-H23,0.715,0.72,0.619,0.337,0.489,0.648,0.554,0.618,0.367,0.499,0.346,0.31,0.377,0.269,0.262,0.616,0.392,0.505,0.599,0.419
NCI-H322M,0.615,0.716,0.564,0.636,0.619,0.894,1.03,0.87,0.773,0.521,0.722,0.969,0.561,0.758,0.749,1.02,0.932,1.05,0.977,0.803
NCI-H358,0.17,0.178,0.167,0.159,0.169,0.726,0.942,0.513,0.711,0.267,0.588,0.595,0.546,0.561,0.346,0.613,0.634,0.617,0.609,0.445
NCI-H441,0.232,0.246,0.228,0.249,0.276,0.844,0.418,0.898,0.771,0.639,0.525,0.451,0.562,0.466,0.448,0.699,0.545,0.45,0.572,0.442
NCI-H460,0.0625,0.0553,0.0625,0.0593,0.0753,0.709,0.809,0.671,0.901,0.552,0.496,0.517,0.472,0.458,0.359,0.797,0.795,0.75,1,0.637
NCI-H520,0.535,0.627,0.657,0.654,0.619,0.704,0.635,0.802,0.725,0.632,0.327,0.396,0.318,0.346,0.388,0.954,0.762,0.924,0.949,0.935
NCI-H596,0.484,,0.534,0.557,0.51,0.635,,0.56,0.506,0.47,0.724,,0.695,0.781,0.764,1.09,0.636,0.996,1.12,1.1
NCI-H647,0.2,0.151,0.174,0.179,0.196,0.615,0.268,0.639,0.299,0.128,0.526,0.433,0.512,0.649,0.313,1.22,1.12,1.11,1.19,0.718
